# “Also recorded” adds a separate entry of the source. Like-named read-outs stand apart in the source and are kept apart here.
# Assays:
# [1] = test system: NO production induced by LPS and IFN-γ in RAW264.7 cells; assay: NO production inhibition test; assay type: cell-based; settings: for inhibition of NO production induced by LPS and IFN-γ: NO2− in the medium, Griess' reagent
# Method: (1) RAW264.7 cells (ATCC TIB 71) were suspended in Dulbecco's modified Eagle's medium (Bio Whittaker, 12-917F) without phenol red containing 10% fetal bovine serum (Gibco) and 2 mM L-glutamine (Life Technologies Oriental, 25030-149) at a concentration of 3×10^5 cells/ml. 500 μl of the suspension was added to each well of a 48-well microtiter plate and the plate was incubated at 37° C. for 12 hours in the presence of 5% CO2. 10 μl of an aqueous solution containing 25 μg/ml lipopolysaccharide (LPS, Sigma, L-2012) and 500 U/ml interferon-γ (IFN-γ, sold by Cosmobio, GZM-MG-IFN), and 10 μl of the aqueous DGE solution at 250 or 500 μM were added to the well. The plate was incubated for additional 12 hours. The concentration of NO2^− produced by oxidation of NO in the medium was then measured. As control groups, a group to which LPS or IFN-γ was not added and a group to which DGE was not added were provided.
# (§1) After cultivation, 100 μl of 4% Griess' reagent (Sigma, G4410) was added to 100 μl of the medium, and the mixture was allowed to stand for 15 minutes at room temperature. The absorbance at 490 nm was then measured. NO2^− concentration in the medium was calculated with reference to a calibration curve prepared by using NaNO2 at a given concentration dissolved in the same medium as that described above. All of the measurements were carried out in triplicate.
# (2) RAW264.7 cells were suspended in Dulbecco's modified Eagle's medium without phenol red containing 10% fetal bovine serum and 2 mM L-glutamine at a concentration of 3×10^5 cells/ml. 500 μl of the suspension was placed in each well of a 48-well microtiter plate. […] The concentration of NO2^− produced by oxidation of NO in the medium was measured. […]
# as §1, with “reagent” for “reagent (Sigma, G4410)”, “culture supernatant,” for “medium,”, “above.” for “above. All of the measurements were carried out in triplicate.”
# RAW264.7 cells were suspended in Dulbecco's modified Eagle's medium without phenol red containing 10% fetal bovine serum and 2 mM L-glutamine at a concentration of 3×10^5 cells/ml. […] The concentration of NO2^− produced by oxidation of NO in the medium was then measured. […]
# as §1, with “above.” for “above. All of the measurements were carried out in triplicate.”
# [2] = test system: Salmonella typhimulium TA1535/pSK1002; assay type: cell-based
# Method: An antimutagenic activity was determined according to a method for detecting an environmental mutagen by the umu test, which can determine mutagenicity with reference to the β-galactosidase activity (Mutation Research, 147: 219 (1985)). Briefly, 25 μl of mutagen [mitomycin C (a DNA crosslinker) at 10 μg/ml or 4-nitroquinoline-1-oxide (NQO, a DNA methylating agent) at 7 μg/ml] was added to 50 μl of DGE solution at a varying concentration (1.0, 5.0, 10 or 15 mM). A culture of Salmonella typhimulium TA1535/pSK1002 in TGA medium at OD600 of 0.12 was added to the mixture to make the final volume to 1.5 ml. The mixture was then incubated at 37° C. for 2 hours with shaking. 200 μl of the culture was used to measure the β-galactosidase activity according to the method of Miller [Experiments in molecular genetics, pp. 352 (1972)].
# [3] = test system: α-glucosidase from rat small intestine mucous membrane; assay: α-Glucosidase inhibition test (crude enzyme from rat small intestine); assay type: biochemical; settings: for relative activity: control without DGE = 100%
# Method: (2) A crude enzyme preparation of α-glucosidase from rat small intestine mucous membrane [prepared according to the method as described in Arne Dahlqvist, Anal. Biochem., 7:18-25 (1964)] was used to measure the activity of inhibiting α-glucosidase of DGE as follows.
# For the enzymatic reaction, 80 μl of a solution of sucrose, maltose, treharose or soluble starch as a substrate in 10 mM phosphate buffer (pH 7.0) buffer at a final concentration of 100 mM (0.5% for soluble starch) was added to 10 μl of a test sample solution appropriately diluted with the same buffer. 10 μl of the crude enzyme solution prepared from rat small intestine was added thereto. The mixture was reacted at 37° C. for 20 minutes.
# The enzymatic reaction was assessed by adding 3 ml of a reagent for glucose measurement (Wako Pure Chemical Industries) to the reaction mixture, reacting at 37° C. for 5 minutes and then measuring the absorbance at 505 nm as the glucose content in the mixture.
# The inhibitory activity of DGE on the digestion of each substrate by α-glycosidase was measured using DGE at four different concentrations according to the above-mentioned method. The activity of inhibiting α-glycosidase was expressed as a relative activity (%) defining the activity of the control without DGE as 100%.
compound,measurement,setting,value
"O=C1C=CC(CO)OC1O [κ-DGE, D-glycero-1,5-epoxy-1αβ,6-dihydroxy-cis-hex-3-en-2-one]",inhibition of NO production induced by LPS and IFN-γ,[1],exhibited a similar activity
same,antimutagenic activity,[2],also exhibited similar activities
same,activities of inhibiting α-glycosidase,[3],also exhibited similar activities of inhibiting α-glycosidase
"5-L-glutathion-S-yl-2-hydroxy-3,7-dioxabicyclo[2.2.2]octan-1-ol [DGE-GSH]",NO2− concentration in the medium,"[1]; LPS and IFN-γ, 10 μl of 1 mM DGE-GSH per 500 μl well, 16 hours, control 12.1 μM, no addition 4.6 μM",9.4 µM
same,antimutagenic activity,[2],also exhibited similar activities
same,activities of inhibiting α-glycosidase,[3],also exhibited similar activities of inhibiting α-glycosidase
"O=C1C=CC(CO)OC1O [DGE, L-glycero-1,5-epoxy-1αβ,6-dihydroxy-cis-hex-3-en-2-one]","inhibition of NO production, 5 hours pre-culture with DGE compared with 0.5 hour",[1]; DGE added before LPS and IFN-γ,stronger inhibition of NO production
same,inhibition of NO production induced by LPS and IFN-γ,[1],dose-dependently inhibited NO production; also recorded: exhibited an activity of inhibiting NO production
same,antimutagenic activity,"[2]; against NQO, DGE final concentration 0.5 mM",36%
same,antimutagenic activity,"[2]; against mitomycin C, DGE final concentration 0.5 mM",37%
same,β-Galactosidase activity,"[2]; mutagen Mitomycin C, DGE final concentration 0.03 mM, without DGE 611",590
same,β-Galactosidase activity,"[2]; mutagen Mitomycin C, DGE final concentration 0.17 mM, without DGE 611",570
same,β-Galactosidase activity,"[2]; mutagen Mitomycin C, DGE final concentration 0.33 mM, without DGE 611",451
same,β-Galactosidase activity,"[2]; mutagen Mitomycin C, DGE final concentration 0.5 mM, without DGE 611",383
same,β-Galactosidase activity,"[2]; mutagen NQO, DGE final concentration 0.03 mM, without DGE 1437",1376
same,β-Galactosidase activity,"[2]; mutagen NQO, DGE final concentration 0.17 mM, without DGE 1437",1212
same,β-Galactosidase activity,"[2]; mutagen NQO, DGE final concentration 0.33 mM, without DGE 1437",1038
same,β-Galactosidase activity,"[2]; mutagen NQO, DGE final concentration 0.5 mM, without DGE 1437",926
same,relative activity,"[3]; substrate Maltose, DGE 0.2 mM",96%
same,relative activity,"[3]; substrate Maltose, DGE 0.5 mM",97%
same,relative activity,"[3]; substrate Maltose, DGE 1.0 mM",100%
same,relative activity,"[3]; substrate Maltose, DGE 2.0 mM",96%
same,relative activity,"[3]; substrate Soluble starch, DGE 0.2 mM",100%
same,relative activity,"[3]; substrate Soluble starch, DGE 0.5 mM",95%
same,relative activity,"[3]; substrate Soluble starch, DGE 1.0 mM",91%
same,relative activity,"[3]; substrate Soluble starch, DGE 2.0 mM",92%
same,relative activity,"[3]; substrate Treharose, DGE 0.2 mM",98%
same,relative activity,"[3]; substrate Treharose, DGE 0.5 mM",96%
same,relative activity,"[3]; substrate Treharose, DGE 1.0 mM",99%
same,relative activity,"[3]; substrate Treharose, DGE 2.0 mM",100%
